Laboratory results reported in ChEMBL document CHEMBL1697821, “Development of a phospholipidosis database and predictive quantitative structure-activity relationship (QSAR) models” (Toxicol Mech Methods, 2008).

These compounds were tested on Phospholipidosis (assay: Literature-mined public compounds from Kruhlak et al phospholipidosis modelling dataset).

SMILES | Phospholipidosis
COc1cccc2c1C(=O)c1c(O)c3c(c(O)c1C2=O)C[C@@](O)(C(=O)CO)C[C@@H]3O[C@H]1C[C@H](N)[C@@H](O)[C@H](C)O1 [EPIRUBICIN] | Negative: based on the absence of positive reported data from WMDD
CCCCC[C@H](O)/C=C/[C@@H]1[C@H]2C/C(=C/CCCC(=O)O)O[C@H]2C[C@H]1O [EPOPROSTENOL] | Negative: based on the absence of positive reported data from WMDD
CCCCc1ncc(/C=C(\Cc2cccs2)C(=O)O)n1Cc1ccc(C(=O)O)cc1 [EPROSARTAN] | Negative: based on the absence of positive reported data from WMDD
COC(=O)CCc1ccc(OCC(O)CNC(C)C)cc1 (stereo unspecified) [ESMOLOL] | Negative: based on the absence of positive reported data from WMDD
CCC(=O)Oc1ccc2c(c1)CC[C@@H]1[C@@H]2CC[C@]2(C)[C@@H](OC(=O)CC)CC[C@@H]12 [ESTRADIOL DIPROPIONATE] | Negative: based on the absence of positive reported data from WMDD
CCCCCCCCCCC(=O)O[C@H]1CC[C@H]2[C@@H]3CCc4cc(O)ccc4[C@H]3CC[C@]12C [ESTRADIOL UNDECYLATE] | Negative: based on the absence of positive reported data from WMDD
C1CNCCN1.C[C@]12CC[C@@H]3c4ccc(OS(=O)(=O)O)cc4CC[C@H]3[C@@H]1CCC2=O [ESTROPIPATE] | Negative: based on the absence of positive reported data from WMDD
C#CC(O)(/C=C/Cl)CC (stereo unspecified) [ETHCHLORVYNOL] | Negative: based on the absence of positive reported data from WMDD
C#C[C@]1(O)CC[C@H]2[C@@H]3CCc4cc(O)ccc4[C@H]3CC[C@@]21C [ETHINYL ESTRADIOL] | Negative: based on the absence of positive reported data from WMDD
CCN(CC)C(C)CN1c2ccccc2Sc2ccccc21 (stereo unspecified) [ETHOPROPAZINE] | Negative: based on the absence of positive reported data from WMDD
CCOC(=O)C1N=C(c2ccccc2F)c2cc(Cl)ccc2NC1=O (stereo unspecified) [ETHYL LOFLAZEPATE] | Positive: strong inducer confirmed by electron microscopy
CCCN(CC)C(CC)C(=O)Nc1c(C)cccc1C (stereo unspecified) [ETIDOCAINE] | Negative: based on the absence of positive reported data from WMDD
CCc1cc2c(s1)-n1c(C)nnc1CN=C2c1ccccc1Cl [ETIZOLAM] | Negative: based on the absence of positive reported data from WMDD
CCOC(=O)c1cncn1[C@H](C)c1ccccc1 [ETOMIDATE] | Negative: based on the absence of positive reported data from WMDD
COc1cc([C@@H]2c3cc4c(cc3[C@@H](O[C@@H]3O[C@@H]5CO[C@@H](C)O[C@H]5[C@H](O)[C@H]3O)[C@H]3COC(=O)[C@H]23)OCO4)cc(OC)c1O [ETOPOSIDE] | Negative: confirmed by electron microscopy
CCOC(=O)/C=C(C)/C=C/C=C(C)/C=C/c1c(C)cc(OC)c(C)c1C [ETRETINATE] | Negative: based on the absence of positive reported data from WMDD
Cc1cc(-c2ccc(/N=N/c3ccc4c(S(=O)(=O)[O-])cc(S(=O)(=O)[O-])c(N)c4c3O)c(C)c2)ccc1/N=N/c1ccc2c(S(=O)(=O)[O-])cc(S(=O)(=O)[O-])c(N)c2c1O.[Na+].[Na+].[Na+].[Na+] [EVANS BLUE] | Negative: based on the absence of positive reported data from WMDD
CC(=O)OCC(CCn1cnc2cnc(N)nc21)COC(C)=O [FAMCICLOVIR] | Negative: based on the absence of positive reported data from WMDD
Cc1c(-c2ccccc2)n(/N=N/n2c(-c3ccccc3)c(C)[n+]3ccccc23)c2cccc[n+]12.[Br-].[Br-] [FAZADINIUM BROMIDE] | Negative: based on the absence of positive reported data from WMDD

SMILES | Phospholipidosis
CCNC(C)Cc1cccc(C(F)(F)F)c1 (stereo unspecified) [FENFLURAMINE] | Positive: strong inducer confirmed by electron microscopy
CC(C(=O)O)c1cccc(Oc2ccccc2)c1 (stereo unspecified) [FENOPROFEN] | Negative: based on the absence of positive reported data from WMDD
CC(C)=CCC1C(=O)N(c2ccccc2)N(c2ccccc2)C1=O [FEPRAZONE] | Negative: based on the absence of positive reported data from WMDD
Cc1c(-c2ccccc2)oc2c(C(=O)OCCN3CCCCC3)cccc2c1=O [FLAVOXATE] | Negative: based on the absence of positive reported data from WMDD
O=C(NCC1CCCCN1)c1cc(OCC(F)(F)F)ccc1OCC(F)(F)F (stereo unspecified) [FLECAINIDE] | Negative: confirmed by electron microscopy
Cc1onc(-c2c(F)cccc2Cl)c1C(=O)N[C@@H]1C(=O)N2[C@@H]1SC(C)(C)[C@@H]2C(=O)O [FLOXACILLIN] | Negative: based on the absence of positive reported data from WMDD
O=c1[nH]c(=O)n([C@H]2C[C@H](O)[C@@H](CO)O2)cc1F [FLOXURIDINE] | Negative: based on the absence of positive reported data from WMDD
Nc1nc(=O)[nH]cc1F [FLUCYTOSINE] | Negative: based on the absence of positive reported data from WMDD
Nc1nc(F)nc2c1ncn2[C@@H]1O[C@H](COP(=O)(O)O)[C@@H](O)[C@@H]1O [FLUDARABINE PHOSPHATE] | Negative: based on the absence of positive reported data from WMDD
O=C(O)c1ccccc1Nc1cccc(C(F)(F)F)c1 [FLUFENAMIC ACID] | Negative: based on the absence of positive reported data from WMDD
O=c1[nH]cc(F)c(=O)[nH]1 [FLUOROURACIL] | Negative: based on the absence of positive reported data from WMDD
CNCCC(Oc1ccc(C(F)(F)F)cc1)c1ccccc1 (stereo unspecified) [FLUOXETINE] | Positive: strong inducer confirmed by electron microscopy
CCCCCCCCCC(=O)OCCN1CCN(CCCN2c3ccccc3Sc3ccc(C(F)(F)F)cc32)CC1 [FLUPHENAZINE DECANOATE] | Negative: based on the absence of positive reported data from WMDD
CCCCCCC(=O)OCCN1CCN(CCCN2c3ccccc3Sc3ccc(C(F)(F)F)cc32)CC1 [FLUPHENAZINE ENANTHATE] | Negative: based on the absence of positive reported data from WMDD
CCN(CC)CCN1C(=O)CN=C(c2ccccc2F)c2cc(Cl)ccc21 [FLURAZEPAM] | Negative: based on the absence of positive reported data from WMDD
O=C1CN2CCOC2(c2ccccc2F)c2cc(Cl)ccc2N1CCO (stereo unspecified) [FLUTAZOLAM] | Negative: based on the absence of positive reported data from WMDD
COCCCC/C(=N\OCCN)c1ccc(C(F)(F)F)cc1 [FLUVOXAMINE] | Positive: weak inducer based on presence of foamy macrophages and cytoplasmic vacuolations
Nc1nc2ncc(CNc3ccc(C(=O)N[C@@H](CCC(=O)O)C(=O)O)cc3)nc2c(=O)[nH]1 [FOLIC ACID] | Negative: based on the absence of positive reported data from WMDD
CN(CC(=O)N1CCOCC1)Cc1c(Cl)cccc1NC(=O)c1ccccc1 [FOMINOBEN] | Negative: based on the absence of positive reported data from WMDD

SMILES | Phospholipidosis
CCC(=O)O[C@@H](O[P@](=O)(CCCCc1ccccc1)CC(=O)N1C[C@H](C2CCCCC2)C[C@H]1C(=O)O)C(C)C [FOSINOPRIL] | Negative: based on the absence of positive reported data from WMDD
NC[C@@H]1O[C@H](O[C@H]2[C@@H](O)[C@H](O[C@@H]3[C@@H](O)[C@H](N)C[C@H](N)[C@H]3O[C@H]3O[C@H](CN)[C@@H](O)[C@H](O)[C@H]3N)O[C@@H]2CO)[C@H](N)[C@@H](O)[C@@H]1O [FRAMYCETIN] | Negative: based on the absence of positive reported data from WMDD
NS(=O)(=O)c1cc(C(=O)O)c(NCc2ccco2)cc1Cl [FUROSEMIDE] | Negative: confirmed by electron microscopy
CC[N+](CC)(CC)CCOc1cccc(OCC[N+](CC)(CC)CC)c1OCC[N+](CC)(CC)CC.[I-].[I-].[I-] [GALLAMINE TRIETHIODIDE] | Negative: based on the absence of positive reported data from WMDD
Cc1ccc(C)c(OCCCC(C)(C)C(=O)O)c1 [GEMFIBROZIL] | Negative: confirmed by electron microscopy
CN[C@@H]1[C@@H](O)[C@@H](O[C@@H]2[C@@H](O)[C@H](O[C@H]3O[C@H]([C@@H](C)NC)CC[C@H]3N)[C@@H](N)C[C@H]2N)OC[C@]1(C)O [GENTAMICIN C1] | Positive: strong inducer confirmed by electron microscopy
CN[C@@H]1[C@@H](O)[C@@H](O[C@@H]2[C@@H](O)[C@H](O[C@H]3O[C@H](C(C)N)CC[C@H]3N)[C@@H](N)C[C@H]2N)OC[C@]1(C)O (stereo partly specified) [GENTAMICIN C2] | Positive: strong inducer confirmed by electron microscopy
Cc1ccc(S(=O)(=O)NC(=O)NN2CC3CCCC3C2)cc1 (stereo unspecified) [GLICLAZIDE] | Negative: based on the absence of positive reported data from WMDD
OCC(O)CO [GLYCERIN] | Negative: based on the absence of positive reported data from WMDD
NCC(=O)O [GLYCINE] | Negative: based on the absence of positive reported data from WMDD
COCCOc1cnc(NS(=O)(=O)c2ccccc2)nc1 [GLYMIDINE] | Negative: based on the absence of positive reported data from WMDD
COC1=CC(=O)C[C@@H](C)[C@]12Oc1c(Cl)c(OC)cc(OC)c1C2=O [GRISEOFULVIN] | Negative: based on the absence of positive reported data from WMDD
CCC(C)(C)N/C(N)=N/C#N [GUANCYDINE] | Negative: based on the absence of positive reported data from WMDD
N=C(N)NCCN1CCCCCCC1 [GUANETHIDINE] | Negative: based on the absence of positive reported data from WMDD
O=C1CN=C(c2ccccc2)c2cc(Cl)ccc2N1CC(F)(F)F [HALAZEPAM] | Negative: based on the absence of positive reported data from WMDD
CCCCN(CCCC)CCC(O)c1cc2c(Cl)cc(Cl)cc2c2cc(C(F)(F)F)ccc12 (stereo unspecified) [HALOFANTRINE] | Negative: based on the absence of positive reported data from WMDD
O=C(CCCN1CCC(O)(c2ccc(Cl)cc2)CC1)c1ccc(F)cc1 [HALOPERIDOL] | Positive: strong inducer confirmed by electron microscopy
CC1(C)S[C@@H]2[C@H](N3C(=O)[C@@H](c4ccccc4)NC3(C)C)C(=O)N2[C@H]1C(=O)O [HETACILLIN] | Negative: based on the absence of positive reported data from WMDD
